system: endogenous cellular STAT1 (phosphorylated at Tyr701) in NCI-H1373 cells; test: Phospho-STAT1 (Tyr701) LANCE Ultra TR-FRET Detection Assay; type: cell-based; conditions: Homo sapiens, NCI-H1373, 48 h, phospho-STAT1 (Tyr701) induction, read-out: NH1373 pSTAT1 EC50

Row | SMILES | EC50
1 | CNc1nc(-c2cc3ccn(CCC[C@H](C)Nc4cn[nH]c(=O)c4C(F)(F)F)c(=O)c3cc2F)ncc1OC [Example 214] | 17.9 nM
2 | C[C@H](CCCn1ccc2cc(-c3ccc(C(F)(F)F)cn3)ccc2c1=O)Nc1cn[nH]c(=O)c1C(F)(F)F (single isomer, unassigned) [Example 2] | 10000 nM
3 | Nc1nc(-c2cc3ncn(CCC[C@H](COC(F)F)Nc4cn[nH]c(=O)c4C(F)(F)F)c(=O)c3cc2F)ncc1C(F)(F)F [Example 385, (R)-7-(4-amino-5-(trifluoromethyl)pyrimidin-2-yl)-3-(5-(difluoromethoxy)-4-((6-oxo-5-(trifluoromethyl)-1,6-dihydropyridazin-4-yl)amino)pentyl)-6-fluoroquinazolin-4(3H)-one] | 13.3 nM
4 | O=c1[nH]ncc(N[C@H]2CCC[C@H]2CCn2ccc3cc(-c4ncc(C(F)(F)F)cn4)c(F)cc3c2=O)c1C(F)(F)F (racemic) [Example 437, (rac)-7-fluoro-2-(2-((1S,2S)-2-((6-oxo-5-(trifluoromethyl)-1,6-dihydropyridazin-4-yl)amino)cyclopentyl)ethyl)-6-(5-(trifluoromethyl)pyrimidin-2-yl)isoquinolin-1(2H)-one] | 102 nM
5 | Nc1nc(-c2cc3ncn(CCC[C@H](COC(F)F)Nc4cn[nH]c(=O)c4C(F)(F)F)c(=O)c3cc2F)ccc1C(F)F [Example 395, (R)-7-(6-amino-5-(difluoromethyl)pyridin-2-yl)-3-(5-(difluoromethoxy)-4-((6-oxo-5-(trifluoromethyl)-1,6-dihydropyridazin-4-yl)amino)pentyl)-6-fluoroquinazolin-4(3H)-one] | 30.4 nM
6 | CC(C)(O)c1ccc(-c2cc3ccn(C[C@@H]4CCC[C@H](Nc5cn[nH]c(=O)c5C(F)(F)F)C4)c(=O)c3cc2F)nc1 [Example 283, 7-fluoro-6-(5-(2-hydroxypropan-2-yl)pyridin-2-yl)-2-(((1R,3S)-3-((6-oxo-5-(trifluoromethyl)-1,6-dihydropyridazin-4-yl)amino)cyclohexyl)methyl)isoquinolin-1(2H)-one] | 113 nM
7 | Nc1nc(-c2cc3ccn(Cc4cccc(Nc5cn[nH]c(=O)c5C(F)(F)F)c4)c(=O)c3cc2F)ncc1C(F)(F)F [Example 438, 6-(4-amino-5-(trifluoromethyl)pyrimidin-2-yl)-7-fluoro-2-(3-((6-oxo-5-(trifluoromethyl)-1,6-dihydropyridazin-4-yl)amino)benzyl)isoquinolin-1(2H)-one] | 23.1 nM
8 | O=c1[nH]ncc(N2CCC2CCCn2cnc3cc(-c4ncc(C(F)(F)F)cn4)c(F)cc3c2=O)c1C(F)(F)F (stereo not shown) [Example 150, 6-fluoro-3-[3-[1-[6-oxo-5-(trifluoromethyl)-1H-pyridazin-4-yl]azetidin-2-yl]propyl]-7-[5-(trifluoromethyl)pyrimidin-2-yl]quinazolin-4-one] | 19.1 nM
9 | CC[C@@H](CCCn1cnc2cc(-c3ncc(Cl)cn3)c(F)cc2c1=O)Nc1cn[nH]c(=O)c1C(F)(F)F [Example 157, 7-(5-chloropyrimidin-2-yl)-6-fluoro-3-[(4S)-4-[[6-oxo-5-(trifluoromethyl)-1H-pyridazin-4-yl]amino]hexyl]quinazolin-4-one] | 22.7 nM
10 | O=c1[nH]ncc(N[C@H]2CCC[C@@H](Cn3c(=O)[nH]c4cc(-c5ncc(C(F)(F)F)cn5)c(F)cc4c3=O)C2)c1C(F)(F)F [Example 281, 6-fluoro-3-(((1R,3S)-3-((6-oxo-5-(trifluoromethyl)-1,6-dihydropyridazin-4-yl)amino)cyclohexyl)methyl)-7-(5-(trifluoromethyl)pyrimidin-2-yl)quinazoline-2,4(1H,3H)-dione] | 2.87 nM
11 | N#Cc1cn(C[C@@H]2CCC[C@H](Nc3cn[nH]c(=O)c3C(F)(F)F)C2)c(=O)c2cc(F)c(-c3ncc(C(F)(F)F)cn3)cc12 [Example 483, 7-fluoro-1-oxo-2-(((1R,3S)-3-((6-oxo-5-(trifluoromethyl)-1,6-dihydropyridazin-4-yl)amino)cyclohexyl)methyl)-6-(5-(trifluoromethyl)pyrimidin-2-yl)-1,2-dihydroisoquinoline-4-carbonitrile] | 4.71 nM
12 | O=c1[nH]ncc(N[C@H]2CCC[C@@H]2CCn2cnc3cc(-c4ncc(Cl)cn4)c(F)cc3c2=O)c1C(F)(F)F [Example 448, 7-(5-chloropyrimidin-2-yl)-6-fluoro-3-(2-((1R,2S)-2-((6-oxo-5-(trifluoromethyl)-1,6-dihydropyridazin-4-yl)amino)cyclopentyl)ethyl)quinazolin-4(3H)-one] | 6.82 nM
13 | COc1cnc(-c2cc3ccn(CCC[C@H](C)Nc4cn[nH]c(=O)c4C(F)(F)F)c(=O)c3c(F)c2F)nc1N [Example 109, 6-(4-amino-5-methoxy-pyrimidin-2-yl)-7,8-difluoro-2-[(4S)-4-[[6-oxo-5-(trifluoromethyl)-1H-pyridazin-4-yl]amino]pentyl]isoquinolin-1-one] | 8.59 nM

Other lines, results leading:

Row | EC50 | SMILES
14 | 1460 nM | Cc1ccc(-c2cc3ccn(CCC[C@H](C)Nc4cn[nH]c(=O)c4C(F)(F)F)c(=O)c3cc2F)nc1C(F)(F)F [Example 296, (S)-7-fluoro-6-(5-methyl-6-(trifluoromethyl)pyridin-2-yl)-2-(4-((6-oxo-5-(trifluoromethyl)-1,6-dihydropyridazin-4-yl)amino)pentyl)isoquinolin-1(2H)-one]
15 | 2.41 nM | O=c1[nH]ncc(N[C@H](CCCn2cnc3cc(-c4ncc(C(F)F)cn4)c(F)cc3c2=O)COC(F)F)c1C(F)(F)F [Example 384, (R)-3-(5-(difluoromethoxy)-4-((6-oxo-5-(trifluoromethyl)-1,6-dihydropyridazin-4-yl)amino)pentyl)-7-(5-(difluoromethyl)pyrimidin-2-yl)-6-fluoroquinazolin-4(3H)-one]
16 | 10.6 nM | CC(C)c1cnc(-c2cc3ccn(CCC[C@H](C)Nc4cn[nH]c(=O)c4C(F)(F)F)c(=O)c3cc2F)nc1N [Example 325, (S)-6-(4-amino-5-isopropylpyrimidin-2-yl)-7-fluoro-2-(4-((6-oxo-5-(trifluoromethyl)-1,6-dihydropyridazin-4-yl)amino)pentyl)isoquinolin-1(2H)-one]
17 | 186 nM | C[C@@H]1C[C@@H](CCCn2cnc3cc(-c4ncc(C(F)(F)F)cn4)c(F)cc3c2=O)N(c2cn[nH]c(=O)c2C(F)(F)F)C1 [Example 176, 6-fluoro-3-[3-[(2R,4R)-4-methyl-1-[6-oxo-5-(trifluoromethyl)-1H-pyridazin-4-yl]pyrrolidin-2-yl]propyl]-7-[5-(trifluoromethyl)pyrimidin-2-yl]quinazolin-4-one]
18 | 4.49 nM | Nc1nc(-c2cc3ccn(CCC[C@H](COC(F)F)Nc4cn[nH]c(=O)c4C(F)(F)F)c(=O)c3cc2F)ccc1F [Example 409, (R)-6-(6-amino-5-fluoropyridin-2-yl)-2-(5-(difluoromethoxy)-4-((6-oxo-5-(trifluoromethyl)-1,6-dihydropyridazin-4-yl)amino)pentyl)-7-fluoroisoquinolin-1(2H)-one]
19 | 1580 nM | COc1cnc(-c2cc3ccn(CCC[C@H](C)Nc4cn[nH]c(=O)c4C(F)(F)F)c(=O)c3cc2F)nc1NC1COC1 [Example 217, (S)-7-fluoro-6-(5-methoxy-4-(oxetan-3-ylamino)pyrimidin-2-yl)-2-(4-((6-oxo-5-(trifluoromethyl)-1,6-dihydropyridazin-4-yl)amino)pentyl)isoquinolin-1(2H)-one]

Reference: US12459922B2 (Gilead Sciences, Inc., priority 2022, dated 2025)
